From publication PMC12067145 (ACS Medicinal Chemistry Letters, 2025)
Read-outs that look alike come from different tables or passages of the source. Each block holds one compound with its values, some of them ahead of it.

Legend:
[1] = Plasma protein binding (human); type: in vitro ADME; settings: pH 7.4, read-out: PPB human (converted)
Protocol: (§1) 0.3% DMSO - ΔRatio of 1 µM control compound)x100
(§2) In vitro Plasma protein binding and Brain homogenate binding: Determination of fraction unbound (f u) in plasma was conducted in vitro via equilibrium dialysis using HTDialysis (HTD) membrane plates. The top half of the plate was filled with 100 uL of Dubelco’s Phosphate Buffered Saline, pH 7.4 (DPBS). Compounds were diluted into plasma from each species (5 µM final concentration), which was aliquoted in triplicate to the ‘bottom half’ of the prepared HTD plate wells. The HTD plate was sealed and incubated for 6 hours at 37 °C. Following incubation, each well (both top and bottom halves) were transferred (20 µL) to the corresponding wells of a 96-shallow-well (V-bottom) plate. The daughter plates were then matrix-matched (DPBS side wells received equal volume of plasma, and plasma side wells received equal volume of DPBS), and extraction solution (120 µL; acetonitrile containing 50 nM carbamazepine as IS) was added to all wells of both daughter plates to precipitate protein and extract test article. The plates were then sealed and centrifuged (3500 rcf) for 10 minutes at ambient temperature. Supernatant (60 µL) from each well of the daughter plates was then transferred to the corresponding wells of new daughter plates (96-shallow-well, V bottom) containing water (Milli-Q, 60 µL/well), and the plates were sealed in preparation for LC-MS/MS analysis (see LC-MS/MS analysis method below).
(§3) The unbound fraction (f u) was calculated following the equation below, and mean values for each species were calculated from 3 replicates. A similar approach was used to determine the degree of brain homogenate binding, which employed the same methodology and procedure with the following modifications: 1) a final compound concentration of 1 μM was used, 2) naïve rat brains were homogenized in DPBS (1:3 composition of brain: DPBS, w/w) using a Mini-Bead Beater™ machine in order to obtain brain homogenate, which was then treated in the same manner as the plasma samples in the previously described plasma protein binding assay. Fraction unbound for both plasma and brain samples was determined using Equation 4.

[2] = Plasma protein binding (mouse); type: in vitro ADME; settings: pH 7.4, read-out: PPB mouse (converted)
Protocol: as §1, §2, §3

[3] = Liver microsome intrinsic clearance (mouse); type: in vitro ADME; settings: pH 7.4; mouse liver microsomes; read-out: LMS CLINT mouse
Protocol: (§4) After a 5 min preincubation, the reaction was initiated by the addition of NADPH (1 mM). At selected time intervals between 0 ~ 60 min (e.g. 0, 3, 7, 15, 25, 45 and/or 60 min), aliquots were taken and subsequently placed into a 96-well plate containing cold acetonitrile with an internal standard (50 ng/mL carbamazepine). Plates were then centrifuged at 3000 rcf (4 °C) for 10 min, and the supernatant was transferred to a separate 96-well plate and diluted 1:1 with water for LC/MS/MS analysis. The in vitro half-life (T 1/2, min, Eq. 1), intrinsic clearance (CLint, mL/min/kg, Eq. 2), and subsequent predicted hepatic clearance (CLhep, mL/min/kg, Eq. 3) were determined employing the following equations: […]
(§5) where k represents the slope from linear regression analysis of the natural log percent remaining of a test compound as a function of incubation time […]
(§6) (2) CLint = in vitroT1/2 x mg microsomes x gram liver x kg body wt ascale-up factors: of 20 (human) or 45 (rat) or 87.5 (mouse) […]
(§7) where Qh (hepatic blood flow, mL/min/kg) is 21 (human) or 70 (rat) or 90 (mouse).
(§8) LC/MS/MS Bioanalysis of Samples from Plasma Protein Binding and Intrinsic Clearance […]
(§9) Samples were analyzed on a Thermo Electron TSQ Quantum Ultra triple quad mass spectrometer (San Jose, CA) via electrospray ionization (ESI) with two Themo Electron Accella pumps (San Jose, CA), and a Leap Technologies CTC PAL autosampler (Carrboro, NC). Analytes were separated by gradient elution on a dual column system with two Thermo Hypersil Gold (2.1 x 30 mm, 1.9 µm) columns (San Jose, CA) thermostated at 40 °C. HPLC mobile phase A was 0.1% formic acid in water and mobile phase B was 0.1% formic acid in acetonitrile. The gradient started […]
(§10) for 0.2 min; returned to 10% B in 0.1 min. The total run time was 1.3 min and the HPLC flow rate was 0.8 mL/min. While pump 1 ran the gradient method, pump 2 equilibrated the alternate column isocratically at 10% B. Compound optimization, data collection, and processing were performed using Thermo Electron's QuickQuan software (v2.3) and Xcalibur (v2.0.7 SP1). […]

[4] = Liver microsome intrinsic clearance (human); type: in vitro ADME; settings: for CLint scaled at 1 µM: pH 7.4, human liver microsomes, read-out: LMS CLINT human
Protocol: as §4, §5, §6, §7, §8, §9, §10

TREK-1 = settings: cited from earlier work
human TREK-1 = target: T1, human TREK-1 (Homo sapiens, UniProt O95069); assay: TREK-1 thallium (Tl+) flux assay; settings: for IC50: read-out: h TREK-1 Tl+ IC50, thallium flux, hTREK-1/CHO
T1 sequence (O95069 1-426): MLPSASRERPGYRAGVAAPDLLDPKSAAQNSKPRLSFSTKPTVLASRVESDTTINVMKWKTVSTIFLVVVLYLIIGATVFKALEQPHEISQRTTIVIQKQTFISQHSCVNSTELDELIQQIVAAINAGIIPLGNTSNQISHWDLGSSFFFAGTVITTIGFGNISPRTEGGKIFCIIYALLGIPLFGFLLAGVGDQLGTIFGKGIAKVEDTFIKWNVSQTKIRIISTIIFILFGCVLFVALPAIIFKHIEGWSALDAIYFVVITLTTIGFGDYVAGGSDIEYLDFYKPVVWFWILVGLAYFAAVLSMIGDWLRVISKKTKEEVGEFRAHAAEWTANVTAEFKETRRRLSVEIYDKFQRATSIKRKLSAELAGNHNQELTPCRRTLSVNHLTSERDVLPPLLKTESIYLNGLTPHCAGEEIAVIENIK

ChromatoLogD = type: physicochemical
Source text: 1 TREK-1 Inhibitory Activity and Lipophilicity of Analogues 10 | column: ChromatoLogD

[5] = Rat IV:PBL PK cassette study / in vivo rat clearance; settings: male, Sprague-Dawley, in vivo rat plasma clearance, read-out: rat CLp; for clearance: intravenous; for clearance at 24 h: iv, 0.2 mg/kg
[6] = Liver microsome intrinsic clearance (rat); type: in vitro ADME; settings: pH 7.4; rat liver microsomes; read-out: LMS CLINT rat
Protocol: as §4, §5, §6, §7, §8, §9, §10

[7] = Plasma protein binding (species not stated); type: in vitro ADME; settings: pH 7.4
Protocol: as §1
as §2, with “Supernatant (60 µL) from each well of the daughter plates was then transferred to the corresponding wells of new daughter plates (96-shallow-well, V bottom) containing water (Milli-Q, 60 µL/well), and the plates were sealed in preparation for LC-MS/MS analysis (see LC-MS/MS analysis method below).” left out
The unbound fraction (f u) was calculated following the equation below, and mean values for each species were calculated from 3 replicates. […] Fraction unbound for both plasma and brain samples was determined using Equation 4.

Aqueous solubility = type: physicochemical; settings: cyclopropyl amides versus N-Boc series

Structure (SMILES): CC(C)(C)OC(=O)Nc1ccc(Cl)c(C(=O)Nc2ncc(C#Cc3ccccc3)cc2F)c1 [Compound 13a]
fraction unbound at 6 h, 5 µM [1]: 0.002
fraction unbound at 6 h, 5 µM [2]: 0.011
CLint scaled at 1 µM [3]: 6 mL/min/kg
CLint scaled at 1 µM [4]: 10 mL/min/kg

Structure (SMILES): O=C(CSc1ccc2ccccc2n1)NNC(=O)c1ccc(Cl)cc1 [TKIM]
IC50 (TREK-1; state-dependent TREK-1 inhibitor): 2960 nM

Structure (SMILES): CC(C)(C)OC(=O)Nc1ccc(Cl)c(C(=O)Nc2ncc(C#Cc3ccccc3)cc2Cl)c1 [Compound 13b]
fraction unbound at 6 h, 5 µM [2]: < 0.001

Structure (SMILES): Cc1cc(C#Cc2ccccc2)cnc1NC(=O)c1cc(NC(=O)OC(C)(C)C)ccc1Cl [Compound 11]
fraction unbound at 6 h, 5 µM [1]: 0.005
fraction unbound at 6 h, 5 µM [2]: 0.013
CLint scaled at 1 µM [3]: 34 mL/min/kg
increase in TREK-1 potency (human TREK-1; versus 10a): ~4 fold
CLint scaled at 1 µM [4]: 13 mL/min/kg
lowering of human microsomal intrinsic clearance ([4]; versus 10a): 10 fold

Structure (SMILES): Cc1ccccc1CC1OC(=O)c2cc(C3CCNCC3)ccc21 (centres unmarked) [Cpd8]
IC50 (TREK-1): 810 nM

Structure (SMILES): Cc1cc(C#Cc2cccc(F)c2)cnc1NC(=O)c1cc(NC(=O)OC(C)(C)C)ccc1Cl [Compound 14b]
fraction unbound at 6 h, 5 µM [1]: < 0.001
fraction unbound at 6 h, 5 µM [2]: < 0.001
CLint scaled at 1 µM [3]: 40 mL/min/kg
CLint scaled at 1 µM [4]: 20 mL/min/kg

Second part, the compound after the results:

CLint scaled at 1 µM [3]: 13 mL/min/kg
IC50 (human TREK-1): 540 nM
CLint scaled at 1 µM [4]: 13 mL/min/kg
Structure (SMILES): Cc1cc(C#Cc2ccccc2F)cnc1NC(=O)c1cc(NC(=O)OC(C)(C)C)ccc1Cl [Compound 14a]

chromatographic logD (ChromatoLogD): 4.4
IC50 (human TREK-1): 560 nM
CLint scaled at 1 µM [4]: 137 mL/min/kg
Structure (SMILES): Cc1cc(OCc2ccccc2)cnc1NC(=O)c1cc(NC(=O)OC(C)(C)C)ccc1Cl [Compound 10a]

clearance [5]: 25 mL/min/kg
Structure (SMILES): Cc1nc(C#Cc2ccccc2)cnc1NC(=O)c1cc(NC(=O)OC(C)(C)C)ccc1Cl [Compound 12]

CLint scaled at 1 µM [6]: 25 mL/min/kg
fraction unbound at 6 h, 5 µM [7]: < 0.003
CLint scaled at 1 µM [3]: 69 mL/min/kg
clearance at 24 h [5]: 12 mL/min/kg
IC50 (human TREK-1): 180 nM
CLint scaled at 1 µM [4]: 13 mL/min/kg
aqueous solubility (in words) (Aqueous solubility): no improvement on aqueous solubility
Structure (SMILES): Cc1cc(C#Cc2ccccc2)cnc1NC(=O)c1cc(NC(=O)C2CC2)ccc1Cl [Compound 15a]

chromatographic logD (ChromatoLogD): 5
Structure (SMILES): Cc1nc(OCc2ccccc2)ccc1NC(=O)c1cc(NC(=O)OC(C)(C)C)ccc1Cl [Compound 10b]

CLint scaled at 1 µM [3]: 78 mL/min/kg
CLint scaled at 1 µM [4]: 27 mL/min/kg
Structure (SMILES): Cc1cc(C#Cc2ccncc2)cnc1NC(=O)c1cc(NC(=O)OC(C)(C)C)ccc1Cl [Compound 14d]

CLint scaled at 1 µM [6]: 10 mL/min/kg
fraction unbound at 6 h, 5 µM [7]: < 0.003
CLint scaled at 1 µM [3]: 50 mL/min/kg
clearance at 24 h [5]: 1.4 mL/min/kg
CLint scaled at 1 µM [4]: 10 mL/min/kg
aqueous solubility (in words) (Aqueous solubility): no improvement on aqueous solubility
Structure (SMILES): Cc1cc(C#Cc2ccc(F)cc2)cnc1NC(=O)c1cc(NC(=O)C2CC2)ccc1Cl [Compound 15b]

chromatographic logD (ChromatoLogD): 4.8
clearance [5]: 135 mL/min/kg
Structure (SMILES): Cc1nc(OCc2ccccc2)cnc1NC(=O)c1cc(NC(=O)OC(C)(C)C)ccc1Cl [Compound 10c]

chromatographic logD (ChromatoLogD): 4.9
increase in TREK-1 potency (human TREK-1; versus HTS hit 5): ~17 fold
Structure (SMILES): Cc1cc(OCc2ccccc2)ccc1NC(=O)c1cc(NC(=O)OC(C)(C)C)ccc1Cl [Compound 6]
